In US4985560A, “Pyridazino(4,5-b)indolizines” (American Home Products Corporation, priority 1990, dated 1991):
Several values for one entry are separate records, joined by “and”; a condition that tells them apart may be missing. Equal values may be shown once.

Experiments:
memory loss = conditions: cited from earlier work
[1] = tested on: male Sprague-Dawley (Charles River) rats; experiment: Radial arm maze test, scopolamine impairment; type: in vivo, rat; conditions: for scopolamine impairment in delay, current and total errors / time compared to scopolamine / delay, current and total errors versus vehicle / time measures versus vehicle: first experiment (Table 2); for scopolamine impairment in delay, current and total errors / time compared to scopolamine: versus scopolamine
From the text: The compound of Example 1 was also studied in the radial arm maze test where male Sprague-Dawley (Charles River) rats on a 23-hour food deprivation schedule were trained in an eight arm radial maze with all arms baited. Each session consisted of two maze exposures, with a time limit of 500 seconds for each exposure. After four correct choices (first exposure), each animal was removed from the maze for one hour then returned with only the remaining four arms baited (second exposure). Choice errors, consisting of delay errors (re-entry into any of the four arms chosen during the first exposure) and current errors (re-entry into any of the four arms chosen during the second exposure), as well as total errors were recorded. Durations for each exposure were also recorded. Statistical analysis were preformed using a One-Way Anova with Dunnetts T-Test comparisons.
All compounds were solubilized in distilled water.

[2] = tested on: Alzheimer's patients and healthy elderly patients; conditions: cited from earlier work; for clinical efficacy: due to side-effects, short duration of action, narrow active dose range
[3] = tested on: scopolamine-induced hyperactivity (muscarinic M1-mediated effect); experiment: Reduction of scopolamine-induced hyperactivity (locomotor activity chambers); type: in vivo, rat
Procedure: The motor activity chambers utilize infrared detectors to assess movement in 3 axes. Total activity measures (vertical+horizontal activity) were collected in 15 minute intervals for 1 hour post-injection. Total activity measures were cumulated across all time intervals for statistical analysis.

M1 muscarinic receptor = biological target: T1, M1 muscarinic receptor (Rattus norvegicus, UniProt P08482); experiment: [3H]-Pirenzepine M1 receptor binding, rat brain tissue; conditions: for IC50: [3H]pirenzepine, rat brain tissue; for M2/M1: ratio of M2 IC50 to M1 IC50
T1 construct: from tissue; host or cells: rat brain tissue
T1 sequence (P08482 1-460): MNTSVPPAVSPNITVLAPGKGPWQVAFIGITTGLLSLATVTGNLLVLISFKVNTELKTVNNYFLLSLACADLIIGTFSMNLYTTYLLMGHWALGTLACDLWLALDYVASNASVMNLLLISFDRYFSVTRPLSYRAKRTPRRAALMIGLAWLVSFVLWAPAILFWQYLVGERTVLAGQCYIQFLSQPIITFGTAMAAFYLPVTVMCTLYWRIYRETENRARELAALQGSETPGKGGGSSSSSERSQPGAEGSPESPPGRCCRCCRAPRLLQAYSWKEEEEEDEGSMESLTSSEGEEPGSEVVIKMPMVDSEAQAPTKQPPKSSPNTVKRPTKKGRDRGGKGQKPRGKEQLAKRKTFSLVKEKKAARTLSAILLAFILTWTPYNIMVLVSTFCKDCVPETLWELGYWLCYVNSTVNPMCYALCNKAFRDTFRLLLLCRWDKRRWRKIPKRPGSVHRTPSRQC

M2 receptor = biological target: T2, M2 receptor (Rattus norvegicus, UniProt P10980); experiment: biochemical; type: binding; conditions: read-out: [3H]QNB M2 IC50
T2 sequence (P10980 1-466): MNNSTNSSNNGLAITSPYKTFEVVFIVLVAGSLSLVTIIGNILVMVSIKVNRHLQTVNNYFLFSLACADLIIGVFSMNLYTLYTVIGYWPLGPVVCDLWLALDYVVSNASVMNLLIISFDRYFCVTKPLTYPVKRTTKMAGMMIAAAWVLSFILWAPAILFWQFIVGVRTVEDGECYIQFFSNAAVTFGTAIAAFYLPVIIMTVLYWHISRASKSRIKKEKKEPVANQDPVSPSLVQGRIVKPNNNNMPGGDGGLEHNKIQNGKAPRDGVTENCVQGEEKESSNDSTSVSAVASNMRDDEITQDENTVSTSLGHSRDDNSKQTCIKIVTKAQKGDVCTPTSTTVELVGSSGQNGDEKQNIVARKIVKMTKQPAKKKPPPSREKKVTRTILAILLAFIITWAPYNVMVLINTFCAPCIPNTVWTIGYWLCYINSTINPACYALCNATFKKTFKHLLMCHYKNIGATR

[4] = Table 2, arecoline 10.0 mg/kg i.p., scopolamine-impaired
[5] = Table 3, 1.0 mg/kg i.p. + scopolamine HBr 0.3 mg/kg s.c.
[6] = Table 3, 3.0 mg/kg i.p. + scopolamine HBr 0.3 mg/kg s.c.
[7] = Table 3, 10.0 mg/kg i.p. + scopolamine HBr 0.3 mg/kg s.c.
[8] = Table 2, physostigmine 0.01 mg/kg i.p., scopolamine-impaired
[9] = Table 2, scopolamine HBr 0.3 mg/kg s.c. alone
[10] = Table 3, scopolamine HBr 0.3 mg/kg s.c. alone

## COC(=O)C1=CCCN(C)C1 [Arecoline, arecoline]
Memory loss; rats
  reversal of muscarinic antagonist-induced memory deficit, rats: can be reversed
[1]; [4]
  Mean Errors, Current: 0.75
  Mean Errors, Delay: 1.50
  Mean Errors, Total: 2.25
  Mean Time, Current: 2.32 min
  Mean Time, Delay: 1.50 min
  Mean Time, Total: 4.06 min
[1]
  scopolamine impairment in delay, current and total errors: significant reduction in scopolamine impairment in delay, current and total errors
  time compared to scopolamine: no significant time reduction versus scopolamine
  delay, current and total errors versus vehicle: did not
  time measures versus vehicle: significant time increase versus vehicle
[2]
  clinical efficacy: neither physostigmine nor arecoline have clinical efficacy
[3]; route not stated
  dose active in scopolamine-induced hyperactivity test: about 5.4 mg/kg

## CCN(CC)CCCNc1nnc(C)c2c1cc1ccccn12 [Example 1, 1-[(3'-Diethylaminopropyl)amino]-4-methylpyridazino[4,5-b]indolizine]
[1]; 1.0 mg/kg i.p., Table 3
  total time compared to scopolamine: reduction in time impairment compared to scopolamine
[1]; 3.0 mg/kg i.p., Table 3
  delay time (first exposure) versus vehicle: significantly increased
[1]; 1, 3, 10 mg/kg i.p., Table 3
  current and total errors, dose trend: definite dose-related decrease in scopolamine impairment
  delay errors, dose trend: no dose-related trend
[1]; 3.0 and 10 mg/kg i.p., Table 3
  total time versus vehicle: significantly increased
[1]; [5]
  Mean Errors, Current: 2.00
  Mean Errors, Delay: 1.83
  Mean Errors, Total: 3.67
  Mean Time, Current: 1.83 min
  Mean Time, Delay: 1.03 min
  Mean Time, Total: 2.99 min
[1]; [6]
  Mean Errors, Current: 1.13
  Mean Errors, Delay: 2.38
  Mean Errors, Total: 3.50
  Mean Time, Current: 2.92 min
  Mean Time, Delay: 1.95 min
  Mean Time, Total: 4.96 min
[1]; [7]
  Mean Errors, Current: 0.75
  Mean Errors, Delay: 2.00
  Mean Errors, Total: 2.75
  Mean Time, Current: 3.32 min
  Mean Time, Delay: 1.63 min
  Mean Time, Total: 5.15 min
[1]; all doses tested (1, 3, 10 mg/kg i.p.), Table 3
  impairment caused by scopolamine: reduced the impairment caused by scopolamine
[1]; all groups, Table 3
  current time (second exposure) versus vehicle: significantly increased
[1]; overall conclusion
  cognitive impairment due to cholinergic hypofunction: can reduce cognitive impairment
M1 muscarinic receptor
  IC50: 0.098 µM
  M2/M1: 42
M2 receptor
  IC50: 4.1 µM
[3]; 30 and 54 mg/kg i.p., scopolamine 1.7 mg/kg s.c.
  total activity versus vehicle-only controls: did not differ from vehicle-only controls
[3]; i.p., scopolamine 1.7 mg/kg s.c., rats
  dose active in reducing scopolamine-induced hyperactivity: 30 mg/kg and 54 mg/kg

## Cc1nnc(NCCN(C)C)c2cc3ccccn3c12 [Example 2]
M1 muscarinic receptor
  IC50: 0.66 µM
  M2/M1: 18
M2 receptor
  IC50: 12 µM

## Cc1nnc(NCCCN(C)C)c2cc3ccccn3c12 [Example 3, N,N-Dimethyl-N'-(4-methylpyridazino[4,5-b]indolizin-1-yl)-1,3-propanediamine]
M1 muscarinic receptor
  IC50: 0.6 µM
  M2/M1: 24
M2 receptor
  IC50: 9.5 µM

## Cc1nnc(NCCN2CCOCC2)c2cc3ccccn3c12 [Example 4, N-[2-(4-Morpholinyl)ethyl]-4-methylpyridazino[4,5-b]indolizin-1-amine]
M1 muscarinic receptor
  IC50: 2.45 µM
  M2/M1: 8
M2 receptor
  IC50: 19 µM

## Cc1nnc(NCCCN2CCOCC2)c2cc3ccccn3c12 [Example 5, N-[3-(4-Morpholinyl)propyl]-4-methylpyridazino[4,5-b]indolizin-1-amine]
M1 muscarinic receptor
  IC50: 0.27 µM
  M2/M1: 44
M2 receptor
  IC50: 12 µM

## CCN1CCCC1CNc1nnc(C)c2c1cc1ccccn12 (stereo not drawn) [Example 6, N-[(1-Ethyl-2-pyrrolidinyl)methyl]-4-methylpyridazino[4,5-b]-indolizin-1-amine]
M1 muscarinic receptor
  IC50: 0.26 µM
  M2/M1: 24
M2 receptor
  IC50: 6.2 µM

## Cc1nnc(N2CCN(C)CC2)c2cc3ccccn3c12 [Example 7, 4-Methyl-1-(4'-methylpiperazinyl)pyridazino[4,5-b]indolizine]
M1 muscarinic receptor
  IC50: 1 µM
  M2/M1: 29
M2 receptor
  IC50: 29 µM

## Cc1nnc(NCCCN2CCCCC2)c2cc3ccccn3c12 [Example 8, 4-Methyl-N-[3-(1-piperidinyl)propyl]pyridazino[4,5-b]indolizin-1-amine]
M1 muscarinic receptor
  IC50: 0.11 µM
  M2/M1: 13
M2 receptor
  IC50: 1.4 µM

## Cc1nnc(NCCCN2CCN(C)CC2)c2cc3ccccn3c12 [Example 9, 4-Methyl-N-[4'-methyl(1-piperazinyl)propyl]pyridazino[4,5-b]indolizin-1-amine]
M1 muscarinic receptor
  IC50: 0.15 µM
  M2/M1: 19
M2 receptor
  IC50: 2.8 µM

## Cc1nnc(NCCCCN2CCN(C)CC2)c2cc3ccccn3c12 [Example 10, 4-Methyl-N-[4'-methyl(1-piperazinyl)butyl]pyridazino[4,5-b]indolizin-1-amine]
M1 muscarinic receptor
  IC50: 0.14 µM
  M2/M1: 25
M2 receptor
  IC50: 3.5 µM

## CNC(=O)Oc1ccc2c(c1)[C@]1(C)CCN(C)[C@@H]1N2C [Physostigmine, physostigmine]
Memory loss; humans and monkeys
  reversal of muscarinic antagonist-induced memory deficit, humans and monkeys: can be reversed
[1]; [8]
  Mean Errors, Current: 0.88
  Mean Errors, Delay: 1.13
  Mean Errors, Total: 2.00
  Mean Time, Current: 2.01 min
  Mean Time, Delay: 1.14 min
  Mean Time, Total: 3.25 min
[1]
  scopolamine impairment in delay, current and total errors: significant reduction in scopolamine impairment in delay, current and total errors
  time compared to scopolamine: significant time reduction compared to scopolamine in both delay time (first exposure) and total time
  delay, current and total errors versus vehicle: did not
[2]
  clinical efficacy: neither physostigmine nor arecoline have clinical efficacy

## CN1[C@@H]2C[C@@H](OC(=O)[C@H](CO)c3ccccc3)C[C@H]1[C@@H]1O[C@@H]12 [Scopolamine, scopolamine]
Memory loss; normal humans and animals (cat, rat, monkey)
  memory loss induced: Memory loss
[1]; [9]
  Mean Errors, Current: 3.63
  Mean Errors, Total: 6.38
  Mean Time, Current: 2.78 min
  Mean Time, Delay: 2.28 min
  Mean Time, Total: 5.27 min
[1]; [10]
  Mean Errors, Current: 3.57
  Mean Errors, Total: 5.72
  Mean Time, Current: 2.90 min
  Mean Time, Delay: 2.01 min
  Mean Time, Total: 5.14 min
[1]
  delay, current and total errors versus vehicle: significant increase in delay, current and total errors versus vehicle
  time measures versus vehicle: increased all time measures compared to vehicle
[1]; second experiment (Table 3)
  total errors compared to vehicle: significantly increased total errors compared to vehicle
[1]; second experiment (Table 3), scopolamine alone
  time measures compared to vehicle: increased all time measures compared to vehicle
[3]; scopolamine 1.7 mg/kg s.c. alone
  total activity measure: significant increase

## lecithin
[2]; Alzheimer's patients and healthy elderly patients
  improvement on cognitive tests: No significant improvement
